The results in this text go back to paper PMC9398717, “Comparison of Pharmacokinetic Profiles of 14 Major Bioactive Components in Normal and Arthritic Model Rats after Oral Administration of Angelicae pubescentis Radix by UPLC-MS/MS” (Evidence-based Complementary and Alternative Medicine : eCAM, 2022).

This data set is described as follows: Pharmacokinetic study in normal and arthritic model rats after oral administration of APR extract (UPLC-MS/MS of plasma). As to conditions: for Cmax / MRT last / half-life / Tmax: Sprague-Dawley, rat, po, 4.1 mL/kg; for Cmax: C max; for MRT last: MRT0-t; for Tmax: t max. The method, then:
One hundred grams of the APR sample was extracted by reflux with 800 mL 50% ethanol/water (v/v) for 3 times (2 hours each time), then combined with the filtrate and concentrated under vacuum with heat, and the concentration of APR extract was 0.37 g/mL. All the sample solutions were stored at 4°C before analysis.
Twelve SD rats were randomly divided into two groups (n = 6) and named as the model group and the normal group, respectively. The arthritic model was established by injecting 0.1 mL of complete Freund's adjuvant in rats. As a control, 0.1 mL of saline was injected. After 7 days, the plasma levels of MDA and TNF-α in normal and model rats were measured by an enzyme-linked immunosorbent assay kit to determine whether the modeling was successful.
The ultrahigh performance liquid chromatography (Thermo Scientific™, Vanquish™, (Waltham, MA, USA)) was used for the chromatographic analysis. UPLC separation was achieved on a Thermo Hypersil GOLD C18 column (100 mm × 2.1 mm, 1.9 μm), which was maintained at 35°C.
The UPLC was interfaced to a Thermo TSQ QUANTIS triple quadrupole mass spectrometer and equipped with an electrospray ionization (ESI) probe working in positive and negative ion exchange scanning mode.
Acetonitrile was used as a precipitation solvent, and protein precipitation was used to handle with the plasma samples. […] Then, the supernatant was dried in a nitrogen environment at 45°C, and the remaining residue was recombined with 100 μL 50% methanol aqueous and vortex for 1 min. Finally, 2 μL supernatant was injected into the UPLC-MS/MS system for analysis.

Setting [1] is: plasma, arthritic model rats (complete Freund's adjuvant), oral APR extract 4.1 mL/kg, mean ± SD, n = 6.
Where [2] appears, read: plasma, normal rats, oral APR extract 4.1 mL/kg, mean ± SD, n = 6.
Setting [3] is: plasma, t 1/2, arthritic model rats (complete Freund's adjuvant), oral APR extract 4.1 mL/kg, mean ± SD, n = 6.
Setting [4] is: plasma, t 1/2, normal rats, oral APR extract 4.1 mL/kg, mean ± SD, n = 6.
The mark [5] stands for this setting: oral APR, concentration-time curve.
Where [6] appears, read: in vivo, arthritic model rats (complete Freund's adjuvant), oral APR extract 4.1 mL/kg, plasma, mean ± SD, n = 6.
Setting [7] is: in vivo, normal rats, oral APR extract 4.1 mL/kg, plasma, mean ± SD, n = 6.

In general, Cmax refers to the peak of the concentration-time curve. Usually MRT last stands for a mean duration of stay, worked out from the concentration-time curve. Broadly, the half-life is the time needed for the level to fall by half in the phase considered. One may read the Tmax as the time from dosing to the highest level.

For `O=C(/C=C/c1ccc(O)c(O)c1)O[C@@H]1[C@H](O)C[C@@](O)(C(=O)O)C[C@H]1OC(=O)/C=C/c1ccc(O)c(O)c1` [3,4-diCQA, isochlorogenic acid B], the Cmax under setting [1] turned out to be 79.7 ± 7.11 ng/mL and the peak concentration (Cmax) under setting [2] worked out at 85.7 ± 8.14 ng/mL. Also, the MRT last by setting is: under setting [1], 19.8 ± 0.4 h; under setting [2], 21.2 ± 0.73 h. In addition, the half-life is, setting by setting: under setting [3], 84.5 ± 24.3 h; under setting [4], 58 ± 12 h. In addition, the Tmax is 0.29 ± 0.1 h under setting [1] and 0.29 ± 0.1 h under setting [2]. Besides, the “change of AUC0-t in model rats compared with normal rats” value (“change of AUC0-t in model rats” for short) (model vs normal rats, oral APR) is given as “decreased”.

With `O=C(C=Cc1ccc(O)c(O)c1)OC1CC(O)(C(=O)O)CC(OC(=O)C=Cc2ccc(O)c(O)c2)C1O` (stereo not drawn) [3,5-diCQA, isochlorogenic acid A], under setting [1], the Cmax stood at 405 ± 49.2 ng/mL, the mean residence time (MRT last) is 18.8 ± 0.49 h and the Tmax came to 0.18 ± 0.03 h. For the same compound, under setting [2], the maximum concentration (Cmax) was determined as 293 ± 47.7 ng/mL, the MRT last is 21.1 ± 0.68 h and the Tmax stood at 0.18 ± 0.03 h. Moreover, the half-life under setting [3] was 59.5 ± 17.2 h. Also, the half-life under setting [4] was 33.9 ± 14.3 h. Further, under “model vs normal rats, oral APR”, the “change of AUC0-t in model rats” value is given as “decreased”, the “change of AUC0-∞ in model rats compared with normal rats” value is on record as “increasing”, the “change of Cmax in model rats compared with normal rats” value (“change of Cmax in model rats” for short) is reported as “increasing” and the “change of t1/2 in model rats compared with normal rats” value (from here on “change of t1/2 in model rats”) is on record as “prolonging”.

On to `COc1c2ccoc2cc2oc(=O)ccc12` [Bergapten, bergapten], for which, under setting [1], the Cmax came out at 518 ± 42.9 ng/mL, the MRT last came out at 7.11 ± 0.09 h and the Tmax was 4.67 ± 1.03 h. Under setting [2], the concentration peaked (Cmax) at 383 ± 95.8 ng/mL, the mean residence time MRT last was found to be 9.4 ± 0.34 h and the Tmax is 3.67 ± 0.82 h. Further, the half-life under setting [3] is 7.16 ± 0.41 h. For the same compound, the half-life under setting [4] was 9.41 ± 2.12 h. Besides, for the setting “model vs normal rats, oral APR”, the “change of CL in model rats compared with normal rats” value (“change of CL in model rats” for short) is “decreased” and the “change of MRT in model rats compared with normal rats” value (“change of MRT in model rats” for short) is recorded as “shortened”. Moreover, under setting [5], the “time of first plasma peak after administration of APR” value is given as 5 min and the “time of second plasma peak after administration of APR” value was 4 h.

For the compound `O=C(/C=C/c1ccc(O)c(O)c1)O[C@@H]1C[C@](O)(C(=O)O)C[C@@H](O)[C@H]1O` [Chlorogenic acid, chlorogenic acid], under setting [1], the Cmax was 2760 ± 264 ng/mL, the MRT last was 8.68 ± 0.52 h and the Tmax was determined as 0.45 ± 0.1 h. Besides, under setting [2], the mean residence time (MRT last) was found to be 5.95 ± 0.28 h and the Tmax was determined as 0.54 ± 0.36 h. Further, the half-life under setting [3] is 52 ± 13.2 h. Besides, the half-life under setting [4] is 27.9 ± 14.8 h. Also, where the note is “model vs normal rats, oral APR”, the “change of AUC0-t in model rats” value is reported as “increased”, the “change of Cmax in model rats” value is listed as “increased”, the “change of MRT in model rats” value is “longer” and the “change of t1/2 in model rats” value is “longer”. The compound further displayed a C max (normal rats, oral APR extract 4.1 mL/kg, plasma, mean ± SD, n = 6) of 1669.61 ± 25.80 ng/mL.

On to `C/C=C(/C)C(=O)OC(C)(C)[C@@H]1Cc2c(ccc3ccc(=O)oc23)O1` [Columbianadin, columbianadin], for which, under setting [1], the Cmax worked out at 1500 ± 48.2 ng/mL, the mean residence time MRT last turned out to be 11.5 ± 0.87 h and the Tmax is 0.23 ± 0.03 h. In addition, under setting [2], the highest concentration (Cmax) turned out to be 1680 ± 222 ng/mL, the MRT last was found to be 12.3 ± 0.57 h and the time to peak (Tmax) stood at 0.23 ± 0.03 h. Under setting [3], the half-life is 16.5 ± 4.83 h. This compound also gave a half-life under setting [4] of 16.4 ± 3.96 h. Further, for the setting “model vs normal rats, oral APR”, the “change of CL in model rats” value is “decreased”.

As to `CC(C)(O)[C@@H]1Cc2c(ccc3ccc(=O)oc23)O1` [Columbianetin, columbianetin], under setting [1], the highest concentration (Cmax) stood at 2220 ± 168 ng/mL, the MRT last amounted to 12.1 ± 0.2 h and the Tmax was determined as 9 ± 1.09 h. Besides, under setting [2], the peak concentration (Cmax) was determined as 3120 ± 242 ng/mL, the MRT last worked out at 13.3 ± 0.36 h and the time to peak (Tmax) worked out at 9.67 ± 0.82 h. Also, under setting [3], the half-life was 6.07 ± 1.28 h. The compound further showed a half-life under setting [4] of 6.04 ± 0.12 h. Moreover, under “model vs normal rats, oral APR”, the “change of AUC0-t in model rats” value is “decreased”, the “change of AUC0-∞ in model rats compared with normal rats” value is recorded as “decreased”, the “change of CL in model rats” value is “increased” and the “change of Cmax in model rats” value is listed as “decreased”. Where the note is “model vs normal rats, oral APR”, the “change of MRT in model rats” value is “shortened”.

Regarding `O=C(/C=C/c1ccc(O)c(O)c1)O[C@H]1[C@H](O)C[C@](O)(C(=O)O)C[C@H]1O` [Cryptochlorogenic acid, cryptochlorogenic acid], under setting [1], the Cmax turned out to be 189 ± 8.7 ng/mL, the MRT last was determined as 19.5 ± 0.55 h and the Tmax was 0.45 ± 0.1 h. Further, under setting [2], the Cmax stood at 143 ± 4.63 ng/mL, the MRT last worked out at 18.3 ± 0.46 h and the time to peak (Tmax) turned out to be 0.42 ± 0.12 h. The half-life under setting [3] is 48.4 ± 10.5 h. In addition, the half-life under setting [4] was 34.5 ± 17.6 h. For the setting “model vs normal rats, oral APR”, the “change of AUC0-t in model rats” value is “increased”, the “change of Cmax in model rats” value is “increased”, the “change of MRT in model rats” value is recorded as “longer” and the “change of t1/2 in model rats” value is given as “longer”.

In the case of `CC(C)=CCOc1c2ccoc2cc2oc(=O)ccc12` [Isoimperatorin, isoimperatorin], under setting [1], the Cmax amounted to 232 ± 21 ng/mL, the MRT last came out at 15.7 ± 0.65 h and the Tmax came out at 0.58 ± 0.2 h. Further, under setting [2], the concentration peaked (Cmax) at 224 ± 26.8 ng/mL, the MRT last was 15.1 ± 0.57 h and the time to peak (Tmax) was found to be 0.58 ± 0.2 h. Also, under setting [3], the half-life is 26.8 ± 5.46 h. In addition, under setting [4], the half-life is 26.9 ± 8.34 h.

As for `O=C(C=Cc1ccc(O)c(O)c1)OC1CC(O)(C(=O)O)CC(O)C1O` (stereo not drawn) [Neochlorogenic acid], the Cmax came to 531 ± 24.1 ng/mL under setting [1] and 420 ± 58.6 ng/mL under setting [2]. Also, the MRT last by setting is: under setting [1], 15.6 ± 0.26 h; under setting [2], 15.6 ± 0.68 h. Moreover, the half-life under setting [3] is 31.8 ± 10.2 h and the half-life under setting [4] was 39.9 ± 16.5 h. For the same compound, the Tmax was 0.23 ± 0.03 h under setting [1] and 0.2 ± 0.04 h under setting [2]. In addition, where the note is “model vs normal rats, oral APR”, the “change in the pharmacokinetic parameters in normal and model rats” value is given as “no significant change”.

`COc1ccc2ccc(=O)oc2c1CC=C(C)C` [Osthol, osthol]: the Cmax reads like this: under setting [1], 4560 ± 272 ng/mL; under setting [2], 3640 ± 286 ng/mL. Further, the MRT last reads like this: under setting [1], 6.94 ± 0.42 h; under setting [2], 6.53 ± 0.29 h. Also, the half-life by setting is: under setting [3], 6.42 ± 0.69 h; under setting [4], 13.4 ± 0.51 h. Moreover, the time to peak (Tmax) is, setting by setting: under setting [1], 0.91 ± 0.2 h; under setting [2], 1.16 ± 0.4 h. Moreover, the “change of CL in model rats” value (model vs normal rats, oral APR) is given as “decreased”.

For `O=c1ccc2cc3ccoc3cc2o1` [Psoralen, psoralen], under setting [1], the highest concentration (Cmax) was found to be 327 ± 42.5 ng/mL, the MRT last came to 12.9 ± 0.22 h and the time to peak (Tmax) is 7.66 ± 0.81 h. Under setting [2], the highest level (Cmax) was 210 ± 27.6 ng/mL, the mean residence time (MRT last) was found to be 14.3 ± 0.31 h and the time of peak concentration (Tmax) is 8 ± 1.26 h. The half-life under setting [3] is 5.98 ± 0.44 h. Under setting [4], this compound had a half-life of 9.8 ± 3.28 h. Further, where the note is “model vs normal rats, oral APR”, the “change of CL in model rats” value is reported as “decreased” and the “change of MRT in model rats” value is “shortened”.

Take `COc1c2occc2cc2ccc(=O)oc12` [Xanthotoxin, xanthotoxin]: under setting [6], the highest concentration (Cmax) came to 528 ± 35 ng/mL, the MRT last stood at 10.3 ± 0.51 h and the Tmax amounted to 3.33 ± 1.03 h. Moreover, under setting [7], the Cmax was 554 ± 76 ng/mL, the MRT last came to 10.7 ± 0.53 h and the Tmax amounted to 4.33 ± 0.82 h. For the same compound, the half-life (in vivo, t 1/2, arthritic model rats (complete Freund's adjuvant), oral APR extract 4.1 mL/kg, plasma, mean ± SD, n = 6) was 14.2 ± 3.76 h. Moreover, the half-life (in vivo, t 1/2, normal rats, oral APR extract 4.1 mL/kg, plasma, mean ± SD, n = 6) was 12.1 ± 1.73 h.
